According to US5726195A, “Aminoacyl adenylate mimics as novel antimicrobial and antiparasitic agents” (Cubist Pharmaceuticals, Inc., priority 1996, dated 1998):
≈ marks a conversion by molar mass, not a printed value.

How the values were obtained:
[1] = target: E. Coli. IleRS (isoleucyl-tRNA synthetase) (Escherichia coli, UniProt P00956); experiment: Inhibition of isoleucyl-tRNA synthetase (aminoacylation of tRNA with [3H]isoleucine); format: biochemical; conditions: E. coli enzyme; irreversible inhibitors: values are 50% of the active enzyme concentration; read-out: IC50 E.Coli. IleRS
Chain of E. Coli. IleRS (isoleucyl-tRNA synthetase) (P00956 whole entry): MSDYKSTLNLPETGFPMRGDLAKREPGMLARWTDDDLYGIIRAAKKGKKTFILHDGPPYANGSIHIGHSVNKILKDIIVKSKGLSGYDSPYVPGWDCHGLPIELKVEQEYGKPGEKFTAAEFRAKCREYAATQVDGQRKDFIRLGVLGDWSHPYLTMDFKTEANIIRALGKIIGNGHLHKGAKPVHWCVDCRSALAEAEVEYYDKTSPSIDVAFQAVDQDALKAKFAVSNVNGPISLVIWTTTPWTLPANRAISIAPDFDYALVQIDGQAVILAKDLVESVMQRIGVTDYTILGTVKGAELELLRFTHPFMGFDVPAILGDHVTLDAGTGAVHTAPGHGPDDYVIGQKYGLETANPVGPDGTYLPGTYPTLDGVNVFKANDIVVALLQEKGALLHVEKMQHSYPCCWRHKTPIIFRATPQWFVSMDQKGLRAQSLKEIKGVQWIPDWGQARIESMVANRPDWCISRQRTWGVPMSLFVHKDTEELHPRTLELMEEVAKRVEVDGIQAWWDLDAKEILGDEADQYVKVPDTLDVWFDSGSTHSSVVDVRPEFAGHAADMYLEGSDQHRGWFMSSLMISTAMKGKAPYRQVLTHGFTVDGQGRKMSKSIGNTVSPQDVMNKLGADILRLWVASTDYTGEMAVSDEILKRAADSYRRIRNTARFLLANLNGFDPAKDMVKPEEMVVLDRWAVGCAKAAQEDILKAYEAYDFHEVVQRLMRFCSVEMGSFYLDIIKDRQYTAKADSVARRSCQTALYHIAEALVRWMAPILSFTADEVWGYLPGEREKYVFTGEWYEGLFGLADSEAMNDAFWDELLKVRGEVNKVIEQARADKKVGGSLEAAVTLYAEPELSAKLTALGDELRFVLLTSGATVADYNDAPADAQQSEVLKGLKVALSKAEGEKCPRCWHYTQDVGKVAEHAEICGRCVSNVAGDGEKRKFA
Protocol: The extent of aminoacylation of tRNA with isoleucine catalyzed by isoleucyl-tRNA synthetase enzyme was measured by monitoring the incorporation of [3H] isoleucine into trichloroacetic acid-precipitable tRNA in the presence of a compound of Formula I, as compared with activity in the absence of inhibitor. The isoleucyl-tRNA synthetase enzymes are well known in the prior art and can be obtained and purified by known methods (for example see: D. Kern et at., Biochimie, 61, 1257-1272 (1979) and J. Gilbart et al., Antimicrobial Agents and Chemotherapy, 37 (1), 32-38 (1993)).
Isoleucyl-tRNA synthetase enzyme (0.08-2.0 nM, preferably, 0.4 nM) was first pre-incubated at 25° C. with 0.05 mg/ml bovine serum albumin, 10 mM DTT, 2.5% dimethyl sulfoxide, with or without a compound of Formula I, for 20 minutes. At this point a substrate solution (a solution containing the following: ATP, [^3 H]isoleucine, tRNA, HEPES, magnesium chloride, and potassium chloride) was added to give a final concentration of 0.0286 mg/ml bovine serum albumin, 5.7 mM DTT, 4 mM ATP, 5-20 μM [^3 H] isoleucine (1-15 Ci/mmol), 90 μM crude tRNA or 2 μM isoleucine specific tRNA, 1.4% dimethyl sulfoxide, 30 mM HEPES (pH 7.5), 10 mM magnesium chloride, and 50 mM potassium chloride and incubated at 25° C. Aliquots were removed at selected times (e.g. 5, 10, 20 minutes) and applied to 3MM filter paper discs (Whatman) and then dropped into 5% (wt/vol) trichloroacetic acid for >5 minutes. Filters were washed for three 10-minute periods in 5% trichloroacetic acid, rinsed in 95% ethanol and diethyl ether, and radioactivity was measured with Betafluor™ (National Diagnostics) by liquid scintillation counting.
Inhibitor activity is reported in Table II as an IC50 value (inhibitor concentration causing 50% inhibition of enzyme activity) per a known amount of active enzyme. In the case of irreversible inhibitors (1:1 stoichiometry) these values are 50% of the active enzyme concentration. The IC50 (in nM, E. coli) values of representative compounds of the present invention are listed in the second column of Table II.

[2] = tested on: C. albicans ATCC 10231; experiment: Whole cell antimicrobial screen, MIC; format: cell-based; conditions: Candida albicans, ATCC10231
Protocol: (§1) Compounds were tested for antimicrobial activity against a panel of organisms according to standard procedures described by the National Committee for Clinical Laboratory Standards (NCCLS document M7-A3, Vol. 13, No. 25, 1993/NCCLS document M27-P, Vol. 12, No. 25, 1992). Compounds were dissolved in 100% dimethyl sulfoxide and were diluted to the final reaction concentration (0.1 μg/mL-500 μg/mL) in microbial growth media. In al cases the final concentration of dimethyl sulfoxide incubated with cells is less than or equal to 1%. For minimum inhibitory concentration (MIC) calculations, 2-fold dilutions of compounds were added to wells of a microtiter plate containing 5×10^4 bacteria or fungal cells in a final volume of 100 lambda of an appropriate media (Mueller-Hinton Broth; Haemophilus Test Media; Mueller-Hinton Broth+5% Sheep Blood; or […]). Plates were incubated overnight at an appropriate temperature (30° C.-37° C.) and optical densities (measure of cell growth) were measured using a commercial plate reader. The MIC value is defined as the lowest compound concentration inhibiting growth of the test organism.

[3] = tested on: E. faecalis ATCC 33011; experiment: Whole cell antimicrobial screen, MIC; format: cell-based; conditions: Enterococcus faecalis, ATCC33011
Protocol: as §1

[4] = tested on: E. faecium ATCC 6569; experiment: Whole cell antimicrobial screen, MIC; format: cell-based; conditions: Enterococcus faecium, ATCC6569
Protocol: as §1

[5] = tested on: S. aureus ATCC 14154; experiment: Whole cell antimicrobial screen, MIC; format: cell-based; conditions: Staphylococcus aureus, ATCC14154
Protocol: as §1

[6] = tested on: S. aureus ATCC 6538P; experiment: Whole cell antimicrobial screen, MIC; format: cell-based; conditions: Staphylococcus aureus, ATCC6538P
Protocol: as §1

[7] = tested on: S. epidermidis ATCC 33501; experiment: Whole cell antimicrobial screen, MIC; format: cell-based; conditions: Staphylococcus epidermidis, ATCC33501
Protocol: as §1

[8] = tested on: S. pneumonia ATCC 49619; experiment: Whole cell antimicrobial screen, MIC; format: cell-based
Protocol: as §1

[9] = tested on: S. pyogenes ATCC 8668; experiment: Whole cell antimicrobial screen, MIC; format: cell-based; conditions: Streptococcus pyogenes, ATCC8668
Protocol: as §1

[10] = tested on: S. saprophyticus ATCC 35552; experiment: Whole cell antimicrobial screen, MIC; format: cell-based; conditions: Staphylococcus saprophyticus, ATCC35552
Protocol: as §1

[11] = tested on: H. influenza ATCC 49247; experiment: Whole cell antimicrobial screen, MIC; format: cell-based
Protocol: as §1

[12] = tested on: B. subtilis ATCC 6633; experiment: Whole cell antimicrobial screen, MIC; format: cell-based; conditions: Bacillus subtilis, ATCC6633
Protocol: as §1

[13] = tested on: K. pneumonia ATCC 4352; experiment: Whole cell antimicrobial screen, MIC; format: cell-based; conditions: Klebsiella pneumoniae, ATCC4352
Protocol: as §1

[14] = tested on: M. catarrhalis ATCC 25240; experiment: Whole cell antimicrobial screen, MIC; format: cell-based; conditions: Moraxella catarrhalis, ATCC25240
Protocol: as §1

[15] = tested on: isoleucyl-tRNA synthetase; conditions: Gram positive bacterial pathogens such as Staphylococcus aureus; cited from earlier work

| SMILES | IC50 [1] [nM] | MIC [2] [µg/mL] | MIC [3] [µg/mL] | MIC [4] [µg/mL] | MIC [5] [µg/mL] | MIC [6] [µg/mL] | MIC [7] [µg/mL] | MIC [8] [µg/mL] | MIC [9] [µg/mL] | MIC [10] [µg/mL] | MIC [11] [µg/mL] | MIC [12] [µg/mL] | MIC [13] [µg/mL] | MIC [14] [µg/mL] | inhibition of isoleucyl adenylate formation [15] |
| --- | --- | --- | --- | --- | --- | --- | --- | --- | --- | --- | --- | --- | --- | --- | --- |
| CC[C@H](C)[C@H](N)C(=O)NS(=O)(=O)OC[C@H]1O[C@@H](CCn2nnc(-c3ccc(C#Cc4ccc([N+](=O)[O-])o4)cc3)n2)[C@H](O)[C@@H]1O [II, [S-(R*,R*)]-3,6-anhydro-1,2-dideoxy-1-[5-[4-[(5-nitro-2-furyl)ethynyl]phenyl]-2H-tetrazol-2-yl]-D-allo-heptitol 7-(2-amino-3-methyl-1-oxopentyl)sulfamate] | 1 | 100 (≈ 158 µM) | 256 (≈ 404 µM) | 64 (≈ 101 µM) | 8 (≈ 12.6 µM) | 4 (≈ 6.31 µM) | 1 (≈ 1.58 µM) | 16 (≈ 25.3 µM) | 16 (≈ 25.3 µM) | 8 (≈ 12.6 µM) | – | – | – | – | – |
| CC[C@H](C)[C@H](N)C(=O)NS(=O)(=O)OC[C@H]1O[C@@H](CCn2nnc(-c3ccc(Oc4ccc(C(=O)OCc5ccccc5)cc4)cc3)n2)[C@H](O)[C@@H]1O [XI] | 109 | > 500 | > 500 | 25 (≈ 34.5 µM) | 25 (≈ 34.5 µM) | 10 (≈ 13.8 µM) | 5 (≈ 6.9 µM) | 50 (≈ 69 µM) | 5 (≈ 6.9 µM) | 10 (≈ 13.8 µM) | 25 (≈ 34.5 µM) | – | – | – | – |
| CC[C@H](C)[C@H](N)C(=O)NS(=O)(=O)OC[C@H]1O[C@@H](CCn2nnc(-c3ccc(C#Cc4ccccc4)cc3)n2)[C@H](O)[C@@H]1O [IV] | 4.5 | > 200 | > 500 | > 500 | 100 (≈ 167 µM) | 10 (≈ 16.7 µM) | 2 (≈ 3.34 µM) | – | – | 10 (≈ 16.7 µM) | – | 25 (≈ 41.8 µM) | 50 (≈ 83.5 µM) | 5 (≈ 8.35 µM) | – |
| CC[C@H](C)[C@H](N)C(=O)NS(=O)(=O)OC[C@H]1O[C@@H](CCn2nnc(-c3ccc(-c4ccccc4)c(C)c3)n2)[C@H](O)[C@@H]1O [XX] | 0.6 | > 500 | 500 (≈ 849 µM) | 100 (≈ 170 µM) | 50 (≈ 84.9 µM) | 50 (≈ 84.9 µM) | 25 (≈ 42.5 µM) | – | – | 25 (≈ 42.5 µM) | > 500 | 50 (≈ 84.9 µM) | 50 (≈ 84.9 µM) | 25 (≈ 42.5 µM) | – |
| CC[C@H](C)[C@H](N)C(=O)NS(=O)(=O)OC[C@H]1O[C@@H](CCn2nnc(-c3ccc(-c4ccccc4C)cc3)n2)[C@H](O)[C@@H]1O [XIX] | 5.3 | 500 (≈ 849 µM) | 300 (≈ 510 µM) | 200 (≈ 340 µM) | 50 (≈ 84.9 µM) | 50 (≈ 84.9 µM) | 5 (≈ 8.49 µM) | – | – | 25 (≈ 42.5 µM) | – | 50 (≈ 84.9 µM) | 100 (≈ 170 µM) | 50 (≈ 84.9 µM) | – |
| CC(=CC(=O)OCCCCCCCCC(=O)O)CC1OCC(CC2OC2C(C)C(C)O)C(O)C1O (stereo not drawn) [Pseudomonic acid A] | – | – | – | – | – | – | – | – | – | – | – | – | – | – | inhibits isoleucyl adenylate formation |
| CC[C@H](C)[C@H](N)C(=O)NS(=O)(=O)OC[C@H]1O[C@@H](CCn2nnc(-c3ccc(-c4ccccc4C)c(C)c3)n2)[C@H](O)[C@@H]1O [XXII] | 11 | > 500 | 200 (≈ 332 µM) | 100 (≈ 166 µM) | 25 (≈ 41.5 µM) | 25 (≈ 41.5 µM) | 5 (≈ 8.3 µM) | 25 (≈ 41.5 µM) | 10 (≈ 16.6 µM) | 10 (≈ 16.6 µM) | – | 25 (≈ 41.5 µM) | 100 (≈ 166 µM) | 50 (≈ 83 µM) | – |
